The values below are quoted from earlier work in patent US6339063B1, “9a-azalides as veterinary antimicrobial agents” (Merck & Co., Inc., priority 1997, dated 2002).

The test system of this series is Pasteurella multocida. The note with it: as said in U.S. Pat. Nos. 4,474,768, 4,464,527 and 4,526,889.

For the molecule `CCC1OC(=O)C(C)C(OC2CC(C)(OC)C(O)C(C)O2)C(C)C(OC2OC(C)CC(N(C)C)C2O)C(C)(O)CC(C)CN(C)C(C)C(O)C1(C)O` (stereo not drawn) [4″-epi-azithromycin], the “activity against Pasteurella multocida in vitro” value is listed as “active”.
For `CC[C@H]1OC(=O)[C@H](C)[C@@H](O[C@H]2C[C@@](C)(OC)[C@@H](O)[C@H](C)O2)[C@H](C)[C@@H](O[C@@H]2O[C@H](C)C[C@H](N(C)C)[C@H]2O)[C@](C)(O)C[C@@H](C)CN(C)[C@H](C)[C@@H](O)[C@]1(C)O` [azithromycin, 9-deoxo-9a-aza-9a-methyl-9a-homoerythromycin A], the “activity against Pasteurella multocida in vitro” value was “active”.
